Where “and” joins values, the source holds several entries; their conditions need not be identical. Equal values may be shown once. Entries after “also recorded” stand apart in the source; their conditions may differ.
What was measured:
σ1 receptor = σ1 receptor (Cavia porcellus, UniProt Q60492); assay: σ1 receptor binding assay, [3H]; set-up: species or system guinea pig; settings: for selectivity for σ1R over DAT and SERT (in words): σ1R versus monoamine transporters
DAT = DAT (Rattus norvegicus, UniProt P23977); assay: DAT binding assay, [3H]WIN 35,428, rat striatum membranes; settings: for DAT Ki values (in words): terminal piperazine amine changed to amide
DAT, sequence (P23977 whole entry): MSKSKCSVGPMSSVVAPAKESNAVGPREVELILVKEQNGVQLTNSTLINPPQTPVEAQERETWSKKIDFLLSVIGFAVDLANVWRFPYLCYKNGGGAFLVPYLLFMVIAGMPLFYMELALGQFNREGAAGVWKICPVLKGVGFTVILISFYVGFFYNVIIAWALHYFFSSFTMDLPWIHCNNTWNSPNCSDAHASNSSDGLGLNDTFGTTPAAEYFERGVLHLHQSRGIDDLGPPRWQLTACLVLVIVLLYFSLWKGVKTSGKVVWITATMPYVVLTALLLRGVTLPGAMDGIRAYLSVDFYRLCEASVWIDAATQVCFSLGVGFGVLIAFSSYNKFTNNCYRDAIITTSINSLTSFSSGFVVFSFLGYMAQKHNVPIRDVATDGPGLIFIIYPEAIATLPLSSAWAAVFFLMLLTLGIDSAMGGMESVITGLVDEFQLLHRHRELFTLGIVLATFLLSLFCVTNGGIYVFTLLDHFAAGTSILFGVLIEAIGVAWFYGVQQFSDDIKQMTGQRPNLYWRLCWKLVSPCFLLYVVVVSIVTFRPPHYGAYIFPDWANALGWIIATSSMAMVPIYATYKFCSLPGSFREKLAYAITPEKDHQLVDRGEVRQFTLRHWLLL

SERT = SERT (Rattus norvegicus, UniProt P31652); assay: SERT binding assay, [3H]citalopram, rat brain stem membranes; settings: DAT versus SERT Ki
SERT, sequence (P31652 whole entry): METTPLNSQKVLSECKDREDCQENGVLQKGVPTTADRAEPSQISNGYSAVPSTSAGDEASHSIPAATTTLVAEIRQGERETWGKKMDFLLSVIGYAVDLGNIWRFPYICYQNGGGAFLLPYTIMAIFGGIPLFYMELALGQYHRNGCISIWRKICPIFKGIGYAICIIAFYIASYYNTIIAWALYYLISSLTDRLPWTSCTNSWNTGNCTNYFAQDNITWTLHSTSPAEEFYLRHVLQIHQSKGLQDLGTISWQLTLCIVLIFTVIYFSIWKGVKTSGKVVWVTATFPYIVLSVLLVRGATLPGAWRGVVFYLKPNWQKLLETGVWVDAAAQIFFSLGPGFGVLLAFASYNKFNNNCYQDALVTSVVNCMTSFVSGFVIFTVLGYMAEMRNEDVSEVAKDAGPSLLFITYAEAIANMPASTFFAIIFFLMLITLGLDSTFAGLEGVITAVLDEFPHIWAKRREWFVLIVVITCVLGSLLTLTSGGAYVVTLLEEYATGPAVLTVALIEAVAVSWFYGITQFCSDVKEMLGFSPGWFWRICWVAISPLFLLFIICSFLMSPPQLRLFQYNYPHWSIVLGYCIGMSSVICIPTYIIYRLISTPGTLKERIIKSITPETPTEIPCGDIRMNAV

hERG = hERG (Homo sapiens, UniProt Q12809); assay: hERG current block; type: cell-based; settings: hERG IC50 over DAT Ki
hERG, sequence (Q12809 whole entry): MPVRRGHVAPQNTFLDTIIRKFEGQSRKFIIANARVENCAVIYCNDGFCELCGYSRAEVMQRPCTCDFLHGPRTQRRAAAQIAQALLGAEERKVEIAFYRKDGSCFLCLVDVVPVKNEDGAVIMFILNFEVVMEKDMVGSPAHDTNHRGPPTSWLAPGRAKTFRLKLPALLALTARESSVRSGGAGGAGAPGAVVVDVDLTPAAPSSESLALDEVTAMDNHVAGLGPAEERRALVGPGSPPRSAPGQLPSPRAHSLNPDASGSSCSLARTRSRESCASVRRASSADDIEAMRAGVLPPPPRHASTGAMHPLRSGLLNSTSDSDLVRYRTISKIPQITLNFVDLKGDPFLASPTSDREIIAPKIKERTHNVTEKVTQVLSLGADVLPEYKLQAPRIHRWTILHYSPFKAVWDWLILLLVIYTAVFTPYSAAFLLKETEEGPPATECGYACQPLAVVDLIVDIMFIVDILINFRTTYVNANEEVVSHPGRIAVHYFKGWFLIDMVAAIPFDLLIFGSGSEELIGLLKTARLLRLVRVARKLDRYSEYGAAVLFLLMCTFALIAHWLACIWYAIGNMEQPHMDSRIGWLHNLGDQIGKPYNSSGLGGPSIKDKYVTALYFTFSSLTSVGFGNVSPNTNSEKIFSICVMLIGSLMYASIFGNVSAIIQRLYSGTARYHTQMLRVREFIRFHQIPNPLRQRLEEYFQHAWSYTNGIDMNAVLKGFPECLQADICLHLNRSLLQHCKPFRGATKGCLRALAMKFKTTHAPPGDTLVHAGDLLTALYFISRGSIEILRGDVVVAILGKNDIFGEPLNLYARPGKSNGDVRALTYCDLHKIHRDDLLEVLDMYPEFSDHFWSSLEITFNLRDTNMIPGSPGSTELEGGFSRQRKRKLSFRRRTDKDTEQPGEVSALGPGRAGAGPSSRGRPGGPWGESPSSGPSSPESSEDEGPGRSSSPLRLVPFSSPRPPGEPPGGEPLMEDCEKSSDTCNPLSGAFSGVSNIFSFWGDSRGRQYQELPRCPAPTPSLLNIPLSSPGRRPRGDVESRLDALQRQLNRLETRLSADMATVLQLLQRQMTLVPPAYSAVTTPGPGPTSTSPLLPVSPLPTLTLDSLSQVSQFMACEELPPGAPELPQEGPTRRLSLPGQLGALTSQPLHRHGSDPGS

[1] = Off-target binding interactions; settings: concentration of 100 nM
[2] = Phase I metabolic stability in mouse liver microsomes; type: in vitro ADME; settings: for phase I metabolic stability (in words): mouse liver microsomes, 60 min; for compound remaining: mouse microsomes fortified with NADPH, 60 min (1 h)
mouse locomotion = assay: Locomotor activity in mice; type: in vivo; settings: i.p., 2 h session, cocaine 3-30 mg/kg, 14a 1-30 mg/kg, 14b/14c 1-10 mg/kg
[3] = Metabolic stability in human liver microsomes; type: in vitro ADME
DAT Y156F mutant = DAT Y156F mutant (Homo sapiens, UniProt Q01959, Y156F); type: binding; settings: read-out: Y156F Ki, COS7 cells, mean [SE interval]
DAT Y156F mutant, sequence (Q01959 whole entry Y156F): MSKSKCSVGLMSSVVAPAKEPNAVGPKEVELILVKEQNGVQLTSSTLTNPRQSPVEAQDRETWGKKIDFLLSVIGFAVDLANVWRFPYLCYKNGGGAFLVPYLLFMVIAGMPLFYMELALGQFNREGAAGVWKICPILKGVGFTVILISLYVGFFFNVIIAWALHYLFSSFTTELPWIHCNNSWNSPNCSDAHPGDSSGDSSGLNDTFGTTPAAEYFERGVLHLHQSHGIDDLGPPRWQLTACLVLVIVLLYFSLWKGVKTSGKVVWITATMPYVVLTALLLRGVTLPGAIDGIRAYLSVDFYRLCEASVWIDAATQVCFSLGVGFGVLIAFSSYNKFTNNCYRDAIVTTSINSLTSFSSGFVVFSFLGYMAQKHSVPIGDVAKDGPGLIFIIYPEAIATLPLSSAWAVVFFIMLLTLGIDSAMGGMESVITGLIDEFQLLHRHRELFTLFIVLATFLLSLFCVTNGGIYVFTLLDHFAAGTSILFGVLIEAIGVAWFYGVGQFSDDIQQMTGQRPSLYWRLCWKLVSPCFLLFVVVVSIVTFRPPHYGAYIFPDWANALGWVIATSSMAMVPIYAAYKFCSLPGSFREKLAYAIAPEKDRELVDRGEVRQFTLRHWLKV

σ1 receptor, sequence (Q60492 whole entry): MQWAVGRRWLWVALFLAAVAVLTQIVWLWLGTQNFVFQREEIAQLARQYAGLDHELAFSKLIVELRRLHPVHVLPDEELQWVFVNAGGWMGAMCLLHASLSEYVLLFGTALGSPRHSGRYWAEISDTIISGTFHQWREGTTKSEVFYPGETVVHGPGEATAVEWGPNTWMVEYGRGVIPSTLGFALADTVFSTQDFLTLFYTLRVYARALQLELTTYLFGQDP

Compound: 1-(4-(2-((Bis(4-fluorophenyl)methyl)thio)ethyl)piperazin-1-yl)-2-phenylethan-1-one [8f]
- selectivity for σ1R over DAT and SERT (in words) (σ1 receptor): σ1R selective
- DAT Ki values (in words) (DAT): low micromolar range
- selectivity for DAT over SERT (in words) (SERT): equivalent

Compound: CC(O)CN1CCN(CCSC(c2ccc(F)cc2)c2ccc(F)cc2)CC1 (stereo not shown) [3a, reference compound]
- hERG/DAT affinity ratio (hERG): 3

Compound: CC(O)CN1CCN(CC[S+]([O-])C(c2ccc(F)cc2)c2ccc(F)cc2)CC1 (stereo not shown) [3b, 1-(4-(2-((bis(4-fluorophenyl)methyl)sulfinyl)ethyl)-piperazin-1-yl)-propan-2-ol, reference compound]
- off-target interactions [1]: no significant interactions

Compound: OC(Cc1ccc(F)cc1)CN1CCN(CCSC(c2ccc(F)cc2)c2ccc(F)cc2)CC1 (stereo not shown) [8a, 1-(4-(2-((Bis(4-fluorophenyl)methyl)thio)ethyl)piperazin-1-yl)-3-(4-fluorophenyl)propan-2-ol]
- phase I metabolic stability (in words) [2]: almost no compound present after 60 min

Compound: O[C@@H](Cc1ccccc1)CN1CCN(CCSC(c2ccc(F)cc2)c2ccc(F)cc2)CC1 [8d, (S)-1-(4-(2-((Bis(4-fluorophenyl)methyl)thio)ethyl)piperazin-1-yl)-3-phenylpropan-2-ol]
- phase I metabolic stability (in words) [2]: almost no compound present after 60 min

Compound: O[C@H](Cc1ccccc1)CN1CCN(CCSC(c2ccc(F)cc2)c2ccc(F)cc2)CC1 [8e, (R)-1-(4-(2-((Bis(4-fluorophenyl)methyl)thio)ethyl)piperazin-1-yl)-3-phenylpropan-2-ol]
- phase I metabolic stability (in words) [2]: almost no compound present after 60 min

Compound: CC(=O)CN1CCN(CCSC(c2ccc(F)cc2)c2ccc(F)cc2)CC1 [8g, 1-(4-(2-((Bis(4-fluorophenyl)methyl)thio)ethyl)piperazin-1-yl)propan-2-one]
- selectivity for σ1R over DAT and SERT (in words) (σ1 receptor): σ1R selective
- decrease of DAT affinity compared to 3a (DAT; 2-propanol oxidised to 2-propanone): ~ 5 fold

Compound: CCC(=O)N1CCN(CCSC(c2ccc(F)cc2)c2ccc(F)cc2)CC1 [11d, 1-(4-(2-((Bis(4-fluorophenyl)methyl)thio)ethyl)piperazin-1-yl)propan-1-one]
- selectivity for σ1R over DAT and SERT (in words) (σ1 receptor): σ1R selective
- DAT Ki values (in words) (DAT): low micromolar range
- selectivity for DAT over SERT (in words) (SERT): equivalent

Compound: C[C@H](O)CN1CCN(CC[S+]([O-])C(c2ccc(F)cc2)c2ccc(F)cc2)CC1 (stereo partly drawn) [12a, (S)-1-(4-(2-((Bis(4-fluorophenyl)methyl)sulfinyl)ethyl)piperazin-1-yl)propan-2-ol]
- phase I metabolic stability (in words) [2]: exceptional and similar metabolic stability

Compound: C[C@@H](O)CN1CCN(CC[S+]([O-])C(c2ccc(F)cc2)c2ccc(F)cc2)CC1 (stereo partly drawn) [12b, (R)-1-(4-(2-((Bis(4-fluorophenyl)methyl)sulfinyl)ethyl)piperazin-1-yl)propan-2-ol]
- phase I metabolic stability (in words) [2]: exceptional and similar metabolic stability

Compound: [O-][S+](CCCN1CCN(CCCc2ccccc2)CC1)C(c1ccc(F)cc1)c1ccc(F)cc1 (stereo not shown) [12c, 1-(3-((Bis(4-fluorophenyl)methyl)sulfinyl)propyl)-4-(3-phenylpropyl)piperazine]
- phase I metabolic stability (in words) [2]: almost no compound present after 60 min

Compound: CC(O)CN1[C@H](C)CN(CCSC(c2ccc(F)cc2)c2ccc(F)cc2)C[C@@H]1C (stereo partly drawn) [14a, 1-(4-(2-((Bis(4-fluorophenyl)methyl)thio)ethyl)-2,6-cis-dimethylpiperazin-1-yl)propan-2-ol]
- locomotor (ambulatory) activity, maximum distance traveled in 30 min (mouse locomotion): not significantly different than vehicle; also recorded: only moderate locomotor stimulation
- metabolic stability (in words) [3]: moderate metabolic stability
- higher binding affinity at σ1 receptors than at DAT (σ1 receptor; σ1 versus DAT): ~ 4 fold
- off-target interactions [1]: no significant interactions
- Ki (DAT Y156F mutant): 269 nM

Compound: CC(O)CN1[C@H](C)CN(CC[S+]([O-])C(c2ccc(F)cc2)c2ccc(F)cc2)C[C@@H]1C (stereo partly drawn) [15a, 1-(4-(2-((Bis(4-fluorophenyl)methyl)sulfinyl)ethyl)-2,6-cis-dimethylpiperazin-1-yl)propan-2-ol]
- compound remaining [2]: 30–44%
- hERG/DAT affinity ratio (hERG): 30
- off-target interactions [1]: no significant interactions

Compound: C[C@@H]1CN(CC[S+]([O-])C(c2ccc(F)cc2)c2ccc(F)cc2)C[C@H](C)N1CC(O)Cc1ccccc1 (stereo partly drawn) [15b, 1-(4-(2-((Bis(4-fluorophenyl)methyl)sulfinyl)ethyl)-2,6-cis-dimethylpiperazin-1-yl)-3-phenylpropan-2-ol]
- phase I metabolic stability (in words) [2]: almost no compound present after 60 min
- off-target interactions [1]: no significant interactions

Compound: OC(CN1CCC2(CCN(CCSC(c3ccc(F)cc3)c3ccc(F)cc3)CC2)C1)c1ccccc1 (stereo not shown) [18b, 2-(8-(2-((Bis(4-fluorophenyl)methyl)thio)ethyl)-2,8-diazaspiro[4.5]decan-2-yl)-1-phenylethan-1-ol]
- compound remaining [2]: 30–44% and 44%
- selectivity for σ1R over DAT and SERT (in words) (σ1 receptor): binding preference for σ1R
- selectivity for DAT over SERT (in words) (SERT): not selective for DAT over SERT; also recorded: equivalent

Compound: CC(O)CN1CCC2(CCN(CC[S+]([O-])C(c3ccc(F)cc3)c3ccc(F)cc3)CC2)C1 (stereo not shown) [compound 19, 1-(8-(2-((Bis(4-fluorophenyl)methyl)sulfinyl)ethyl)-2,8-diazaspiro[4.5]decan-2-yl)propan-2-ol]
- selectivity for σ1R over DAT and SERT (in words) (σ1 receptor): binding preference for σ1R
- selectivity for DAT over SERT (in words) (SERT): not selective for DAT over SERT; also recorded: equivalent

Source: article PMC9617638 (Journal of medicinal chemistry, 2019)
